# Test results as given in ChEMBL document CHEMBL1142798, “Lipophilic versus hydrogen-bonding effect in P3 on potency and selectivity of valine aspartyl ketones as caspase 3 inhibitors” (Bioorg Med Chem Lett, 2005).
# Assays:
# Caspase-1 = target: T1, Caspase-1 (Homo sapiens, UniProt P29466); assay: Inhibitory activity against recombinant human Caspase-1
# T1 sequence (P29466 whole entry): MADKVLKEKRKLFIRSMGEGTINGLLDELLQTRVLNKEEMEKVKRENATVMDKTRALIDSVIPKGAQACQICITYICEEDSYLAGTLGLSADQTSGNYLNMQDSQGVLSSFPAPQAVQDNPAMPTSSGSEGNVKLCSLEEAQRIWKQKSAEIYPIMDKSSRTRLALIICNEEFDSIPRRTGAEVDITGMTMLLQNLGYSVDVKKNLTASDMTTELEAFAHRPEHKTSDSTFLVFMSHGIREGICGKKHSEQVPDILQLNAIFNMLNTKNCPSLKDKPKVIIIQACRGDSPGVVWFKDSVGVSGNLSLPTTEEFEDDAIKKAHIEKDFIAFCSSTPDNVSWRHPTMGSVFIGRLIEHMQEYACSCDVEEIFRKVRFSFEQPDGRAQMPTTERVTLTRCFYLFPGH
# Caspase-3 = target: T2, Caspase-3 (Homo sapiens, UniProt P42574); assay: Inhibitory activity against recombinant human Caspase-3
# T2 sequence (P42574 whole entry): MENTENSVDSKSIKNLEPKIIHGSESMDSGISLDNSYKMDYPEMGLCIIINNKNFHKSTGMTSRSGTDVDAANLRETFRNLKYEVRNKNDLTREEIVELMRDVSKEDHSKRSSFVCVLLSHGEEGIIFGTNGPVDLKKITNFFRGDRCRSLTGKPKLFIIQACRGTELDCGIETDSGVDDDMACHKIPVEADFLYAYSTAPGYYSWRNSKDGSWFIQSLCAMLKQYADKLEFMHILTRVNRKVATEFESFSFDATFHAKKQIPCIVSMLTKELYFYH
# Caspase-7 = target: T3, Caspase-7 (Homo sapiens, UniProt P55210); assay: Inhibitory activity against recombinant human Caspase-7
# T3 sequence (P55210 whole entry): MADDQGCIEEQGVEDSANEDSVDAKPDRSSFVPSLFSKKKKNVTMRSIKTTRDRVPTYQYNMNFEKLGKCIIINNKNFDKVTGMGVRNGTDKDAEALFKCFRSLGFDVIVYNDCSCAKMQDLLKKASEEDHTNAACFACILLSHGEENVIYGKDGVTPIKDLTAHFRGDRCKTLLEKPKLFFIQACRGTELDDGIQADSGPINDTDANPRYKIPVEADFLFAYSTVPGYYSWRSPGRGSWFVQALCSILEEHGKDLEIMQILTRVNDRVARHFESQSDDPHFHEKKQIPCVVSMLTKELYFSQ
# Caspase-8 = Caspase-8 (Homo sapiens, UniProt Q14790); assay: Inhibitory activity against recombinant human Caspase-8
# Chain of Caspase-8 (Q14790 217-374 limits assumed): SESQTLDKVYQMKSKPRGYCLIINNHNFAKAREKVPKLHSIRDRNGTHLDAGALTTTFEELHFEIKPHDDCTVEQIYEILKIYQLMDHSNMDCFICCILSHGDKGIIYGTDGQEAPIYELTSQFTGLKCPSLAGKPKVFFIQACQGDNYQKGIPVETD
# Chain of Caspase-8 (Q14790 385-479 limits assumed): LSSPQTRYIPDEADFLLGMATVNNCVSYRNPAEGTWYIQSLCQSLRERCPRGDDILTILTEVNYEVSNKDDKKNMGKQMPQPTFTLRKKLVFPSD
IC50 (Caspase-1) [µM],IC50 (Caspase-3) [µM],IC50 (Caspase-7) [µM],IC50 (Caspase-8) [µM],SMILES
3.04,0.018,0.284,1.89,COc1ccc(Br)cc1CC(=O)N[C@H](C(=O)N[C@@H](CC(=O)O)C(=O)CSCc1ccccc1)C(C)C (stereo in doubt; 6)
7.07,0.053,–,7.91,COc1ccc(OC)c(CC(=O)N[C@H](C(=O)N[C@@H](CC(=O)O)C(=O)CSCc2ccccc2)C(C)C)c1
3.01,0.118,3.4,7.34,CC(C)[C@H](O)C(=O)N[C@H](C(=O)N[C@@H](CC(=O)O)C(=O)CSCc1ccccc1)C(C)C
> 10,0.323,> 10,> 10,COc1ccc(Br)cc1[C@H](C(=O)N[C@H](C(=O)N[C@@H](CC(=O)O)C(=O)CSCc1ccccc1)C(C)C)C1CC1
> 10,2.02,> 10,9.58,CCC(O)(CC)C(=O)N[C@H](C(=O)N[C@@H](CC(=O)O)C(=O)CSCc1ccccc1)C(C)C
> 10,0.146,> 10,> 10,CC(C)[C@H](NC(=O)C(O)(C(F)(F)F)C(F)(F)F)C(=O)N[C@@H](CC(=O)O)C(=O)CSCc1ccccc1
9.59,0.16,5.09,12.3,CC(C)[C@H](NC(=O)C1(O)CC1)C(=O)N[C@@H](CC(=O)O)C(=O)CSCc1ccccc1
5.45,0.009,0.097,3.29,COc1ccc(-c2nc(C)no2)cc1CC(=O)N[C@H](C(=O)N[C@@H](CC(=O)O)C(=O)CSCc1ccccc1)C(C)C
4.06,0.1,10.9,3.65,"CC(C)[C@H](NC(=O)C(O)c1ccccc1)C(=O)N[C@@H](CC(=O)O)C(=O)CSCc1ccccc1 (single isomer, unassigned)"
–,0.018,0.285,1.89,COc1ccc(Br)cc1CC(=O)N[C@H](C(=O)N[C@@H](CC(=O)O)C(=O)CSCc1ccccc1)C(C)C (stereo in doubt; 29)
18.9,0.085,2.76,8,CC(C)[C@H](NC(=O)C(C)(O)c1ccccc1)C(=O)N[C@@H](CC(=O)O)C(=O)CSCc1ccccc1 (stereo not given in full)
4.16,0.041,1.05,1.15,CC(C)[C@H](NC(=O)[C@H](O)c1ccccc1)C(=O)N[C@@H](CC(=O)O)C(=O)CSCc1ccccc1
6.19,0.013,0.555,3.88,COc1ccc(C(C)=O)cc1CC(=O)N[C@H](C(=O)N[C@@H](CC(=O)O)C(=O)CSCc1ccccc1)C(C)C
> 10,1.29,> 10,> 10,CC(C)[C@H](NC(=O)C(O)(c1ccccc1)c1ccccc1)C(=O)N[C@@H](CC(=O)O)C(=O)CSCc1ccccc1
18.4,0.467,10.9,13.8,CC(C)[C@H](NC(=O)C(C)(C)O)C(=O)N[C@@H](CC(=O)O)C(=O)CSCc1ccccc1
> 10,0.425,> 10,9.17,CO[C@H](C(=O)N[C@H](C(=O)N[C@@H](CC(=O)O)C(=O)CSCc1ccccc1)C(C)C)c1ccccc1
21.2,–,–,22.1,CC(C)[C@H](NC(=O)Cc1ccccc1)C(=O)N[C@@H](CC(=O)O)C(=O)CSCc1ccccc1
> 10,0.33,> 10,7.27,CC(C)[C@H](NC(=O)[C@H](O)C(C)C)C(=O)N[C@@H](CC(=O)O)C(=O)CSCc1ccccc1

SMILES,IC50 (Caspase-1) [µM],IC50 (Caspase-3) [µM],IC50 (Caspase-7) [µM],IC50 (Caspase-8) [µM]
C#CC[C@@H](C(=O)N[C@H](C(=O)N[C@@H](CC(=O)O)C(=O)CSCc1ccccc1)C(C)C)c1cc(Br)ccc1OC (stereo in doubt; 13),> 10,0.341,3.62,4.47
COc1ccc(Br)cc1[C@@H](C)C(=O)N[C@H](C(=O)N[C@@H](CC(=O)O)C(=O)CSCc1ccccc1)C(C)C,> 10,–,–,–
COc1ccc(Br)cc1[C@H](C(=O)N[C@H](C(=O)N[C@@H](CC(=O)O)C(=O)CSCc1ccccc1)C(C)C)C(C)C,> 10,–,> 10,–
CCC[C@@H](C(=O)N[C@H](C(=O)N[C@@H](CC(=O)O)C(=O)CSCc1ccccc1)C(C)C)c1cc(Br)ccc1OC,> 10,–,–,–
C#CC[C@@H](C(=O)N[C@H](C(=O)N[C@@H](CC(=O)O)C(=O)CSCc1ccccc1)C(C)C)c1cc(Br)ccc1OC (stereo in doubt; 14),1.03,0.017,0.139,0.092
